Measurements from patent US12421240B2, “Hydropyrazino[1,2-d][1,4]diazepine compounds for the treatment of autoimmune disease” (Hoffmann-La Roche Inc., priority 2019, dated 2025).

These molecules were tested against T1, human TLR8 (Homo sapiens, UniProt Q9NR97) (assay: HEK293-Blue-hTLR-8 cells assay (SEAP reporter, R848 stimulation)). Conditions: HEK293-Blue-hTLR8 cells, R848 ligand, 20 hrs; read-out: HEK/hTLR8 IC50.
T1 sequence (Q9NR97 27-1041): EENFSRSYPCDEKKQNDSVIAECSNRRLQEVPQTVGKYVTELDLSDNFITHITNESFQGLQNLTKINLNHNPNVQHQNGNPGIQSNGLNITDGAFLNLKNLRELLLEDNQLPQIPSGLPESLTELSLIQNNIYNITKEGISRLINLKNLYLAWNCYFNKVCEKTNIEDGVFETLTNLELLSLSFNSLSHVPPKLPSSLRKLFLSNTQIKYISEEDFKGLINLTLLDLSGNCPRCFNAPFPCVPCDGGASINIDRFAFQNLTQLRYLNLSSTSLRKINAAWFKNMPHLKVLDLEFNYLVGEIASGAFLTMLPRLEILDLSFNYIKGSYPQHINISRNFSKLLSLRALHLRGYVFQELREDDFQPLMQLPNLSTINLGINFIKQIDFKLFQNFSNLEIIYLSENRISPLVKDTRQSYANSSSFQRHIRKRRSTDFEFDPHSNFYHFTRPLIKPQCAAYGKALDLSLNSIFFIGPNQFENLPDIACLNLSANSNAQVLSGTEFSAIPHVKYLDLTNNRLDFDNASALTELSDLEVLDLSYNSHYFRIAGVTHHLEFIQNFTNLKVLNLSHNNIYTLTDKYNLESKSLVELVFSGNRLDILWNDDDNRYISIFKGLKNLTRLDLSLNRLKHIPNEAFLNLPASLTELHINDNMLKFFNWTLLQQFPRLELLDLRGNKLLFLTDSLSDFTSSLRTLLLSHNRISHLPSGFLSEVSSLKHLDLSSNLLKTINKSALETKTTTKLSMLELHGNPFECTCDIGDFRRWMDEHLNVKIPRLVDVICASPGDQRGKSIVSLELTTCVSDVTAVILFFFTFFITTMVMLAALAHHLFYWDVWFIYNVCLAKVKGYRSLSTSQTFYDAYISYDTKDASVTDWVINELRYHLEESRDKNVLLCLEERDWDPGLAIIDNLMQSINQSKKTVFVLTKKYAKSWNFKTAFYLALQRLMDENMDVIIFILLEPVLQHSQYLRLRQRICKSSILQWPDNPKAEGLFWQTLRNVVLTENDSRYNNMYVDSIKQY
Format: cell-based
Experimental: The following tests were carried out in order to determine the activity of the compounds of formula (I), (Ia) or (Ib) in HEK293-Blue-hTLR-7/8/9 cells assay.
HEK293-Blue-hTLR-8 Cells Assay:
A stable HEK293-Blue-hTLR-8 cell line was purchased from InvivoGen (Cat. #: hkb-htlr8, San Diego, California, USA). These cells were originally designed for studying the stimulation of human TLR8 by monitoring the activation of NF-κB. A SEAP (secreted embryonic alkaline phosphatase) reporter gene was placed under the control of the IFN-β minimal promoter fused to five NF-κB and AP-1-binding sites. The SEAP was induced by activating NF-κB and AP-1 via stimulating HEK-Blue hTLR8 cells with TLR8 ligands. Therefore the reporter expression was declined by TLR8 antagonist under the stimulation of a ligand, such as R848, for incubation of 20 hrs. The cell culture supernatant SEAP reporter activity was determined using QUANTI-Blue™ kit (Cat. #: rep-qb1, Invivogen, San Diego, Ca., USA) at a wavelength of 640 nm, a detection medium that turns purple or blue in the presence of alkaline phosphatase.
HEK293-Blue-hTLR8 cells were incubated at a density of 250,000˜450,000 cells/mL in a volume of 170 μL in a 96-well plate in Dulbecco's Modified Eagle's medium (DMEM) containing 4.5 g/L glucose, 50 U/mL penicillin, […], […], 2 mM L-glutamine, 10% (v/v) heat-inactivated fetal bovine serum with addition of 20 μL test compound in a serial dilution in the presence of final DMSO at 1% and 10 μL of 60 uM R848 in above DMEM, perform incubation under 37° C. in a CO2 incubator for 20 hrs. Then 20 μL of the supernatant from each well was incubated with 180 μL Quanti-blue substrate solution at 37° C. for 2 hrs and the absorbance was read at 620-655 nm using a spectrophotometer. The signaling pathway that TLR8 activation leads to downstream NF-κB activation has been widely accepted, and therefore similar reporter assay was modified for evaluating TLR8 antagonist.

Compound	IC50 [nM]
C[C@@H]1CN(c2ccc(C#N)c3ncccc23)C[C@@H]2CCN(Cc3ncc(N4CCNCC4)cn3)CCN21 [Example 13, 5-[(4R,10aS)-4-methyl-8-[(5-piperazin-1-ylpyrimidin-2-yl)methyl]-1,3,4,6,7,9,10,10a-octahydropyrazino[1,2-d][1,4]diazepin-2-yl]quinoline-8-carbonitrile]	31.7
CO[C@@H]1CN(c2ccc(CN3CC[C@H]4CN(c5ccc(C#N)c6ncccc56)C[C@@H](C)N4CC3)nc2)C[C@H]1N [Example 22, 5-[(4R,10aS)-8-[[5-[(3R,4R)-3-amino-4-methoxy-pyrrolidin-1-yl]-2-pyridyl]methyl]-4-methyl-1,3,4,6,7,9,10,10a-octahydropyrazino[1,2-d][1,4]diazepin-2-yl]quinoline-8-carbonitrile]	14.1
C[C@@H]1CN(c2ccc(C#N)c3ncccc23)C[C@@H]2CCN(c3ccc(N4CCNCC4)nc3)CCN21 [Example 1, 5-[(4R,10aS)-4-methyl-8-(6-piperazin-1-yl-3-pyridyl)-1,3,4,6,7,9,10,10a-octahydropyrazino [1,2-d][1,4]diazepin-2-yl]quinoline-8-carbonitrile]	61.7
C[C@@H]1CN(c2ccc(C#N)c3ncccc23)C[C@@H]2CCN(Cc3cnc4c(c3)CNCC4)CCN21 [Example 10, 5-[(4R,10aS)-4-methyl-8-(5,6,7,8-tetrahydro-1,6-naphthyridin-3-ylmethyl)-1,3,4,6,7,9,10,10a-octahydropyrazino[1,2-d][1,4]diazepin-2-yl]quinoline-8-carbonitrile]	5.2
C[C@@H]1CN(c2ccc(C#N)c3ncccc23)C[C@@H]2CCN(Cc3cc4c(cn3)CNCC4)CCN21 [Example 8, 5-[(4R,10aS)-4-methyl-8-(5,6,7,8-tetrahydro-2,7-naphthyridin-3-ylmethyl)-1,3,4,6,7,9,10,10a-octahydropyrazino[1,2-d][1,4]diazepin-2-yl]quinoline-8-carbonitrile]	8.6
C[C@@H]1CN(c2ccc(C#N)c3ncccc23)C[C@@H]2CCN(c3cnc(N4CCNCC4)nc3)CCN21 [Example 2, 5-[(4R,10aS)-4-methyl-8-(2-piperazin-1-ylpyrimidin-5-yl)-1,3,4,6,7,9,10,10a-octahydropyrazino[1,2-d][1,4]diazepin-2-yl]quinoline-8-carbonitrile]	25.2
CO[C@@H]1CN(c2cnc(CN3CC[C@H]4CN(c5ccc(C#N)n6ncc(F)c56)C[C@@H](C)N4CC3)c(F)c2)C[C@H]1N [Example 27, 4-[(4R,10aS)-8-[[5-[(3R,4R)-3-amino-4-methoxy-pyrrolidin-1-yl]-3-fluoro-2-pyridyl]methyl]-4-methyl-1,3,4,6,7,9,10,10a-octahydropyrazino[1,2-d][1,4]diazepin-2-yl]-3-fluoro-pyrazolo[1,5-a]pyridine-7-carbonitrile]	10.1
CO[C@@H]1CN(c2cnc(CN3CC[C@H]4CN(c5ccc(C#N)n6nccc56)C[C@@H](C)N4CC3)c(F)c2)C[C@H]1N [Example 26, 4-[(4R,10aS)-8-[[5-[(3R,4R)-3-amino-4-methoxy-pyrrolidin-1-yl]-3-fluoro-2-pyridyl]methyl]-4-methyl-1,3,4,6,7,9,10,10a-octahydropyrazino[1,2-d][1,4]diazepin-2-yl]pyrazolo[1,5-a]pyridine-7-carbonitrile]	85.7
C[C@@H]1CN(c2ccc(C#N)c3ncccc23)C[C@@H]2CCN(c3ccc4c(n3)CNCC4)CCN21 [Example 5, 5-[(4R,10aS)-4-methyl-8-(5,6,7,8-tetrahydro-1,7-naphthyridin-2-yl)-1,3,4,6,7,9,10,10a-octahydropyrazino[1,2-d][1,4]diazepin-2-yl]quinoline-8-carbonitrile]	3.9
C[C@@H]1CN(c2ccc(C#N)c3ncccc23)C[C@@H]2CCN(Cc3cccc(N4CCNCC4)n3)CCN21 [Example 18, 5-[(4R,10aS)-4-methyl-8-[(6-piperazin-1-yl-2-pyridyl)methyl]-1,3,4,6,7,9,10,10a-octahydropyrazino[1,2-d][1,4]diazepin-2-yl]quinoline-8-carbonitrile]	8.1
C[C@@H]1CN(c2ccc(C#N)c3ncccc23)C[C@@H]2CCN(Cc3cc4c(cn3)CCNC4)CCN21 [Example 9, 5-[(4R,10aS)-4-methyl-8-(5,6,7,8-tetrahydro-2,6-naphthyridin-3-ylmethyl)-1,3,4,6,7,9,10,10a-octahydropyrazino[1,2-d][1,4]diazepin-2-yl]quinoline-8-carbonitrile]	6.4
C[C@@H]1CN(c2ccc(C#N)c3ncccc23)C[C@@H]2CCN(c3cncc4c3CCNC4)CCN21 [Example 4, 5-[(4R,10aS)-4-methyl-8-(5,6,7,8-tetrahydro-2,7-naphthyridin-4-yl)-1,3,4,6,7,9,10,10a-octahydropyrazino[1,2-d][1,4]diazepin-2-yl]quinoline-8-carbonitrile]	2.4
C[C@@H]1CN(c2ccc(C#N)c3ncccc23)C[C@@H]2CCN(c3ccc4c(n3)CCNC4)CCN21 [Example 6, 5-[(4R,10aS)-4-methyl-8-(5,6,7,8-tetrahydro-1,6-naphthyridin-2-yl)-1,3,4,6,7,9,10,10a-octahydropyrazino[1,2-d][1,4]diazepin-2-yl]quinoline-8-carbonitrile]	< 3.2
C[C@@H]1CN(c2ccc(C#N)c3ncccc23)C[C@@H]2CCN(Cc3ccc4c(c3)CNCC4)CCN21 [Example 12, 5-[(4R,10aS)-4-methyl-8-(1,2,3,4-tetrahydroisoquinolin-7-ylmethyl)-1,3,4,6,7,9,10,10a-octahydropyrazino[1,2-d][1,4]diazepin-2-yl]quinoline-8-carbonitrile]	2.7
C[C@@H]1CN(c2ccc(C#N)c3ncccc23)C[C@@H]2CCN(Cc3ccc(N4C[C@@H](N)[C@@H](F)C4)cn3)CCN21 [Example 20, 5-[(4R,10aS)-8-[[5-[(3R,4S)-3-amino-4-fluoro-pyrrolidin-1-yl]-2-pyridyl]methyl]-4-methyl-1,3,4,6,7,9,10,10a-octahydropyrazino[1,2-d][1,4]diazepin-2-yl]quinoline-8-carbonitrile]	11
C[C@@H]1CN(c2ccc(C#N)c3ncccc23)C[C@@H]2CCN(Cc3cncc(N4CCNCC4)c3)CCN21 [Example 16, 5-[(4R,10aS)-4-methyl-8-[(5-piperazin-1-yl-3-pyridyl)methyl]-1,3,4,6,7,9,10,10a-octahydropyrazino[1,2-d][1,4]diazepin-2-yl]quinoline-8-carbonitrile]	12.1
C[C@@H]1CN(c2ccc(C#N)c3ncccc23)C[C@@H]2CCN(c3ccc([C@H]4CNCCO4)cc3)CCN21 [Example 3, 5-[(4R,10aS)-4-methyl-8-[4-[(2S)-morpholin-2-yl]phenyl]-1,3,4,6,7,9,10,10a-octahydropyrazino[1,2-d][1,4]diazepin-2-yl]quinoline-8-carbonitrile]	4.8
C[C@@H]1CN(c2ccc(C#N)c3ncccc23)C[C@@H]2CCN(Cc3ccc(N4CCNCC4)cn3)CCN21 [Example 19, 5-[(4R,10aS)-4-methyl-8-[(5-piperazin-1-yl-2-pyridyl)methyl]-1,3,4,6,7,9,10,10a-octahydropyrazino[1,2-d][1,4]diazepin-2-yl]quinoline-8-carbonitrile]	10.2
